Where no end group is shown, it is not given here.
Columns and labels:
[1] = molecular target: full-length H2A-H2B (Saccharomyces cerevisiae, UniProt P02293+P04911); experiment: ITC binding to full-length H2A-H2B
[2] = tested on: H2A-H2B^30-130 H2B M62E; experiment: ITC binding to H2A-H2B^30-130 bearing H2B M62E; parameters: species or system Saccharomyces cerevisiae
[3] = tested on: H2A R78A H2A-H2B^30-130; experiment: ITC binding to H2A-H2B^30-130 bearing H2A R78A; parameters: species or system Saccharomyces cerevisiae
[4] = tested on: H2A R78E H2A-H2B^30-130; experiment: ITC binding to H2A-H2B^30-130 bearing H2A R78E; parameters: species or system Saccharomyces cerevisiae
[5] = tested on: H2A-H2B M62E; experiment: ITC binding of full-length FACT to H2A-H2B M62E; parameters: species or system Saccharomyces cerevisiae
[6] = tested on: H2A-H2B M62E; experiment: EMSA binding of full-length FACT to H2A-H2B M62E; parameters: species or system Saccharomyces cerevisiae; details: not shown
[7] = tested on: H2A.Z-H2B; experiment: EMSA of full-length FACT with H2A.Z-H2B; type: binding, Saccharomyces cerevisiae
[8] = tested on: H2A-H2B^30-130 bearing H2B Y45A; experiment: ITC binding to H2A-H2B^30-130 bearing H2B Y45A; parameters: species or system Saccharomyces cerevisiae
[9] = tested on: H2A-H2B^30-130 bearing H2B M62A; experiment: ITC binding to H2A-H2B^30-130 bearing H2B M62A; parameters: species or system Saccharomyces cerevisiae

full-length H2A-H2B, sequence (P04911 2-132 limits assumed): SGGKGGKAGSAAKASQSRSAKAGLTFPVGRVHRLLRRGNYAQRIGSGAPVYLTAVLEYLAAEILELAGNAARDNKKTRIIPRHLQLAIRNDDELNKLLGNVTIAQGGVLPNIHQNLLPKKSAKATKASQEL
full-length H2A-H2B, sequence (P02293 2-131 limits assumed): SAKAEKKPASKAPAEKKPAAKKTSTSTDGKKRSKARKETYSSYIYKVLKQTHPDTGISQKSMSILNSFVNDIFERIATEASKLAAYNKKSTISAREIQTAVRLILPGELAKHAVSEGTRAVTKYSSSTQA

## Spt16-C^958-999: Spt16 residues 958-999 (DDEASDESEEEVSEYEASEDDVSDESAFSEDEEGSEVDDDIS)
[1]; 25 °C, pH 7.4, 200 mM NaCl
  binding to H2A-H2B (in words): recapitulates the full H2A-H2B binding activity of Spt16

## Spt16^958-990: Spt16 peptide of residues 958-990 used for crystal structure and histone mutant binding (DDEASDESEEEVSEYEASEDDVSDESAFSEDEE)
[2]
  binding to H2B M62E histone mutant (in words): reduced binding to undetectable levels
[3]
  binding to H2A R78A histone mutant (in words): little effect on binding
[4]
  binding to H2A R78E histone mutant (in words): affinity was completely lost

## full-length FACT: full-length S. cerevisiae Spt16-Pob3 heterodimer
[1]; 25 °C, pH 7.4, 200 mM NaCl
  stoichiometry of binding to H2A-H2B: one full-length Spt16-Pob3 heterodimer bound two H2A-H2B dimers
[5]
  binding of full-length FACT to H2A-H2B M62E by ITC (in words): severe reduction in the binding
[6]
  binding of full-length FACT to H2A-H2B M62E by EMSA (in words): diminished binding
[7]
  discrimination between H2A.Z-H2B and H2A-H2B by EMSA (in words): does not differentiate between H2A.Z-H2B and H2A-H2B

## Pob3: Pob3 subunit of FACT
[1]; read-out: dissociation constant (KD) for H2A-H2B, 25 °C, 25 mM Na-K phosphate pH 7.4, 200 mM NaCl, at least triplicate
  Kd: ~1000 nM

## DESVDEDFQVSSDNDADEVAEEFDS [Pob3^505-529]
[8]
  reduction in binding (fold) with H2B Y45A relative to wild-type histones: 12 fold
[9]
  reduction in binding (fold) with H2B M62A relative to wild-type histones: 9 fold
